Data set [1] can be described thus: Human crossover pharmacokinetic interaction study of WM (Tamiflu) alone or with CMF1. Format: in vivo, human (Chinese male healthy volunteers). Particulars: for AUC(0-t): AUC0–12 h; for Cmax: C max. As to the method:
Normal healthy Chinese male subjects aged 20–45 years were recruited in this study. […] The study was conducted using a single-center, randomized, open-labeled, multiple dose (5 days), two-treatment, two-period, two-sequence crossover design. […] Each subject underwent two treatment sessions (periods I and II), and each session consists of 5-day treatment (twice daily for day 1 to day 4, morning dose for day 5). The two treatment sessions were separated by a washout period of 2 weeks. 250 mL water was used for WM (Tamiflu capsule, 75 mg per dose) administration. […] Drinking water was not allowed from 1 h predose to 1 h postdose except that needed for drug dosing. […] All blood and urine collection was taken on day 5 of each treatment session. […] Blood samples were collected from a catheter, which was placed in the forearm vein before dosing. At the specified time, 5 mL of blood was drawn (except for 0 time and at 2 h which was 10 mL each for additional antiviral activity determination) and stored in vacuette lithium heparin tubes (Greiner Bio-One). […] Plasma samples were collected after centrifugation and then stored at −80°C until assay. Urine was also collected (and the volume was recorded) at pre-dose, 0–4, 4–8, and 8–12 h intervals. […] After mixing and centrifugation, the supernatant was loaded in prewashed Oasis MCX cartridge (1 cc, 30 mg, Waters) and the cartridge was rinsed subsequently with 1% formic acid, water, and methanol followed by vacuum dried for 20 min. The analytes were then eluted with 1 mL of 1% ammonia in methanol. The eluting solvent was dried by a vacuum concentrator and the residue was reconstituted with 200 μL of 0.1% formic acid : methanol (1 : 1 v/v) prior to HPLC/MS/MS analysis using an ABI 2000 Q-Trap triple quadrupole mass spectrometer (Applied Biosystems) coupled with PE-200 series micropumps and autosampler (Perkin-Elmer). […] In human study, trough concentration (C trough) was defined as the minimum concentration obtained and was obtained at 12 h post-dose. […] In human studies, the comparison of WM + CMF1 to WM alone treatments was evaluated using a 90% confidence intervals (90% CI) approach (USFDA guideline, Drug Interactions Studies, September 2006). […] The statistical model included terms describing the effects attributable to sequence, subject (nested in sequence), period, and treatment (formulation). […] Difference in the median T max between both treatments was evaluated using Wilcoxon signed-rank test. For comparison of the human antiviral activities, one-way analysis of variance in conjunction with post hoc Turkey's range test was performed.

Data set [2] in a line: Rat pharmacokinetics of OA and OC in plasma and urine after oral OA alone or with CMF1. Format: in vivo, Sprague-Dawley rats. Particulars: in vivo, po, 30 mg/kg. As to the method:
The study was approved by the Animal Ethics Committee of The Chinese University of Hong Kong. Male Sprague-Dawley rats (230–250 g) were utilized and supplied by the Laboratory Animal Service Center at The Chinese University of Hong Kong. The rats were housed under standard conditions of temperature, humidity, and light and randomly divided into six groups with 10–12 rats in each group. […] The dose of 1.95 g/kg CMF1 is calculated based on the human dose recommended by the Chinese physicians and a doubled dose of CMF1 at […] is also used in the current study due to the potential large dosing range for Chinese medicine adopted in the practice. […]
For dosing, OA (4 mg/mL) was freshly prepared by dissolving it in water and orally given to rats by gavage, bid (twice daily) for 4 days (9:00am and 6:00pm for each day), and CMF1 was also freshly suspended in water and then orally given to rats 2 h later of OA dosing (11:00 am and 8:00 pm for each day).
For Groups of 1 to 3, a surgery for jugular vein cannulation was performed 1 h after CMF1 second dosing on day 4. A polyethylene catheter (0.50 mm ID, 1.00 mm OD, Portex Limited, Hythe, Kent, England) was cannulated into the right jugular vein under anesthesia. After surgery, the rat was placed in separated metabolic cage and allowed to recover and fasted overnight with free access to water. In the morning of day 5, blood samples (0.2 mL each) of the rats in the Groups 1–3 were collected via the catheter at 0, 15, 30, 60, 90, 120, 180, 240, 360, and 480 min after dosing of OA. After which, 0.2 mL of normal saline containing 20 units/mL of heparin was then injected into the catheter to flush the catheter. The collected blood samples were immediately placed in heparinized tubes containing dichlorvos (5 μL of 8 mg/mL dichlorvos in normal saline) for inhibition of carboxylesterase, followed by centrifugation to obtain the plasma and stored at −80°C. Urine samples were collected over 8 h postdose and combined with water used for rinsing the metabolic cage, further diluted to 200 mL, and then stored at −80°C until assay.
The rat/human plasma and urine samples were treated and analyzed by an LC/MS/MS system as previously described. Briefly, 200 μL plasma/urine samples was mixed with cephalexin hydrate (internal standard, IS) working solution (final 2 μg/mL) and acidified with 1 mL of 10% perchloric acid in water (if necessary, dilution with blank human urine was required for urine samples). After mixing and centrifugation, the supernatant was loaded in prewashed Oasis MCX cartridge (1 cc, 30 mg, Waters) and the cartridge was rinsed subsequently with 1% formic acid, water, and methanol followed by vacuum dried for 20 min. The analytes were then eluted with 1 mL of 1% ammonia in methanol. The eluting solvent was dried by a vacuum concentrator and the residue was reconstituted with 200 μL of 0.1% formic acid : methanol (1 : 1 v/v) prior to HPLC/MS/MS analysis using an ABI 2000 Q-Trap triple quadrupole mass spectrometer (Applied Biosystems) coupled with PE-200 series micropumps and autosampler (Perkin-Elmer). The chromatographic separation was achieved by using a Nova-Pak CN HP column (75 × 3.9 mm i.d., 4 μm particle size, Waters) and the HPLC solvent system consisted of methanol (A) and 0.1% formic acid in water (B), with 50% A (for plasma samples) or 60% A (for urine samples) at 1 mL/min. The temperatures of autosampler and the analytical column were set at 4°C and ambient, respectively, and the sample injection volume was 20 μL. Prior to the mass spectrometric system, 60% of the LC eluent was split off and only 40% of the eluent was introduced into the ESI source.
The plasma/urine OA and OC concentrations versus time profiles were analyzed using WinNonlin software standard edition version 2.1 (Pharsight Corporation). […] In human study, trough concentration (C trough) was defined as the minimum concentration obtained and was obtained at 12 h post-dose. […]

The mark [3] stands for this setting: male, human, in vivo, geometric mean.

Each structure is given as a SMILES string.

Experimental findings from PMC3912631, “Bench to Bed Evidences for Pharmacokinetic and Pharmacodynamic Interactions Involving Oseltamivir and Chinese Medicine” (Evidence-based Complementary and Alternative Medicine : eCAM, 2014) are described below.

What is called AUC(0-t) is the area under the concentration-time curve up to a stated or last time point. The low end stands for low exposure, the high end for high exposure. Broadly, the Cmax is the peak of the concentration-time curve. As a reminder, the half-life is how long it takes for the measured level to halve. As usually defined, the Tmax is the time from dosing to the highest level. The CL/F is clearance divided by bioavailability, as obtained after extravascular dosing.

`CCOC(=O)C1=C[C@@H](OC(CC)CC)[C@H](NC(C)=O)[C@@H](N)C1` [OA, Oseltamivir]: the C max in data set [1] (human, day 5, WM + CMF1, n = 14, arithmetic mean ± SD) is reported as 51.3 ± 17.4 ng/mL. In data set [1] (in vivo), the tolerability entry is listed as “well tolerated”. For the same compound, in data set [1] (male, human, in vivo), the “12 h Cum. amt. in urine” value was found to be 2883 ± 985 µg; the “12 h Cum. amt. in urine, geometric mean” value was 2745.53 µg; the “C max for WM + CMF1 treatment lower than that from WM alone” value is reported as 21.81%; the “C max when OA was co-administered with CMF1, relative to WM alone” value was ~ 78%. For the same compound, in data set [1] (male, human, in vivo), the “time to reach peak maximum in plasma” value fell in the range of 0.5 to 1 h, the AUC(0-t) amounted to 134 ± 41.1 ng·h/mL and the Cmax worked out at 67.9 ± 27.1 ng/mL. Besides, in data set [1] (setting [3]), the AUC(0-t) came out at 130 ng·h/mL and the Cmax stood at 62.4 ng/mL. Further, the CL renal in data set [1] (male, human, in vivo, Renal clearance) was 368 mL/min. Besides, the half-life in data set [1] (male, human, in vivo, T 1/2 (terminal half-life)) is 1.98 ± 0.4 h. In addition, the Tmax in data set [1] (male, human, in vivo, T max) is 0.61 ± 0.21 h. For the same compound, the CL renal in data set [1] (male, human, in vivo, renal clearance) was roughly 367 mL/min. In addition, in data set [2], the “AUC0–8 h” value was 199.85 ± 56.88 μg∗min/mL; the “AUC0–inf” value stood at 209.14 ± 60.23 μg∗min/mL; the “V d, λz/F” value was 23.39 ± 8.17 (L/k)g. Also, the Cmax in data set [2] (male, Sprague-Dawley, C max) was 1160 ± 300 ng/mL. Also, the CL renal in data set [2] (male, Sprague-Dawley, CL renal) was determined as 6.1 ± 1.32 mL/min. Also, the CL/F in data set [2] (male, Sprague-Dawley, CL/F) was found to be 158 ± 59.6 mL/min/kg. In data set [2] (male, Sprague-Dawley, T max), the Tmax is 0.55 h. This compound also yielded a half-life in data set [2] (male, Sprague-Dawley, t 1/2, λz) of 1.72 ± 0.146 h.
